Drawing on ChEMBL document CHEMBL1150477, “Development of angiotensin II antagonists with equipotent affinity for human AT1 and AT2 receptor subtypes” (Bioorg Med Chem Lett, 1994), this text covers IC50, Ratio and inhibition in vivo for nine molecules.

In general, IC50 refers to the concentration needed to halve the response being measured. As usually defined, the inhibition in vivo is how much of the control response was suppressed. Lower therefore signals a response near the control.

Assay [1] has as its target T1, Type-2 angiotensin II receptor (Homo sapiens, UniProt P50052).
T1 sequence (P50052 whole entry): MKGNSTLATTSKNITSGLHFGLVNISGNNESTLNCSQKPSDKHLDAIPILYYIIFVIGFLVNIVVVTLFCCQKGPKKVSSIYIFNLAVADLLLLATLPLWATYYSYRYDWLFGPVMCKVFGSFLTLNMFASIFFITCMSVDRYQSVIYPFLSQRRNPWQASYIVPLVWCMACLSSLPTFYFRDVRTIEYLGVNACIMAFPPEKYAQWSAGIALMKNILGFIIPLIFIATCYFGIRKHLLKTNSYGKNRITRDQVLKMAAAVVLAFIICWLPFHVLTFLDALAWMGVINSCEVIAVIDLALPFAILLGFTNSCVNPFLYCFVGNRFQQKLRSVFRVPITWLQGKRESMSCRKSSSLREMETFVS
The assay is described as follows: […] inhibitory concentration against AT2 receptor of human adrenal membrane.

The target of assay [2] is T2, Type-2 angiotensin II receptor (Rattus norvegicus, UniProt P35351).
T2 sequence (P35351 whole entry): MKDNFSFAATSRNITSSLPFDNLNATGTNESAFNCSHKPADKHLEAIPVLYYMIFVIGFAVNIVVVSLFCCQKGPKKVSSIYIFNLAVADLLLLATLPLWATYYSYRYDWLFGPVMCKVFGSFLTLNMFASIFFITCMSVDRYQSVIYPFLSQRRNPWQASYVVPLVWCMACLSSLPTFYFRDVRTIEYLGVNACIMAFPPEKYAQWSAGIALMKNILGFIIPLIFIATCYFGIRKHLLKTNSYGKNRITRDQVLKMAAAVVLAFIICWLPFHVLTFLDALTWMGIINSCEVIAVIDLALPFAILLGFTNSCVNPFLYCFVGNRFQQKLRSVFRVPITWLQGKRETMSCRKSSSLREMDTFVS
Kind of assay: […] inhibitory concentration against AT2 receptor of rat adrenal membrane.

For assay [3], the target named is T3, Type-1 angiotensin II receptor (Oryctolagus cuniculus, UniProt P34976).
T3 sequence (P34976 whole entry): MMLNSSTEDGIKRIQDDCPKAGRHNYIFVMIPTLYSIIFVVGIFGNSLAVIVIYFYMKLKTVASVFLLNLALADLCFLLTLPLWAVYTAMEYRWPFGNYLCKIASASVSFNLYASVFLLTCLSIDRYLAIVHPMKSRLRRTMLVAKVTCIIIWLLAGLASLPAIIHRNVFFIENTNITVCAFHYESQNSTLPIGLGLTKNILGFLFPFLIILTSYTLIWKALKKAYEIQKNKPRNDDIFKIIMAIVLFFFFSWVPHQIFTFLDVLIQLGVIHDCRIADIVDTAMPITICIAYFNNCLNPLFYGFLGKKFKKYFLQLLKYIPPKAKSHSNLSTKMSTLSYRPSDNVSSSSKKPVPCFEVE
Kind of assay: […] inhibitory concentration against Angiotensin II receptor, type 1 of rabbit aorta membrane.

Assay [4] addresses T2, Type-2 angiotensin II receptor. Kind of assay: […] inhibitory concentration against Angiotensin II, type 2 of rat midbrain membrane.
For assay [5], the target named is T4, Angiotensin II receptor (AT-1) type-1 (Rattus norvegicus, UniProt P29089+P25095).
T4 sequence (P29089 whole entry): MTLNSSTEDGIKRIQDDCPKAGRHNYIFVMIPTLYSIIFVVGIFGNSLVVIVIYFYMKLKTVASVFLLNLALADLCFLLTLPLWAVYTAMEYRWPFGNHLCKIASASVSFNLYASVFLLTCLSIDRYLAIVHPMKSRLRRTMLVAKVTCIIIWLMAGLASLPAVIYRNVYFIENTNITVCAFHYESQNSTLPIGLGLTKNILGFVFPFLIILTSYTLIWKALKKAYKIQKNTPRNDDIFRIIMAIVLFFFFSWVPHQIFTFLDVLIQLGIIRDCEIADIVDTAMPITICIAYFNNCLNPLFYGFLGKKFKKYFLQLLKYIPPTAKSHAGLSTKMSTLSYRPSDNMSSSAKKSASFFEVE
T4 sequence (P25095 whole entry): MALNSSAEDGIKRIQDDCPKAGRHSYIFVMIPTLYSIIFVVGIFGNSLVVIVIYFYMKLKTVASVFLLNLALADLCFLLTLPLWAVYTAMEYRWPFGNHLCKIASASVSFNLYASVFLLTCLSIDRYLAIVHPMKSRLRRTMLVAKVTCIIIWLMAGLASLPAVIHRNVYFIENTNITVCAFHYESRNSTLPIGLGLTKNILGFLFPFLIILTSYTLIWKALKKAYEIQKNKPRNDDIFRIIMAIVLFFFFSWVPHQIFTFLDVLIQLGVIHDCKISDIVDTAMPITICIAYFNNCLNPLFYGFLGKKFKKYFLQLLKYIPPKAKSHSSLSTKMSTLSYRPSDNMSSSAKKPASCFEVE
Kind of assay: […] inhibitory concentration against Angiotensin II receptor, type 1 of rat adrenal membrane.

The species entered for assay [6] is Oryctolagus cuniculus. Kind of assay: Ratio of inhibitory concentration against AT2 receptor of rat midbrain to AT1 receptor of rabbit aorta.
The target in assay [7] is Angiotensin II receptor (Homo sapiens) (UniProt P30556+P50052). Kind of assay: Ratio of inhibitory concentration against AT2 receptor and AT1 receptor of human adrenal membrane.
Chain of Angiotensin II receptor (Homo sapiens) (P30556 whole entry, looked up, one chain of several): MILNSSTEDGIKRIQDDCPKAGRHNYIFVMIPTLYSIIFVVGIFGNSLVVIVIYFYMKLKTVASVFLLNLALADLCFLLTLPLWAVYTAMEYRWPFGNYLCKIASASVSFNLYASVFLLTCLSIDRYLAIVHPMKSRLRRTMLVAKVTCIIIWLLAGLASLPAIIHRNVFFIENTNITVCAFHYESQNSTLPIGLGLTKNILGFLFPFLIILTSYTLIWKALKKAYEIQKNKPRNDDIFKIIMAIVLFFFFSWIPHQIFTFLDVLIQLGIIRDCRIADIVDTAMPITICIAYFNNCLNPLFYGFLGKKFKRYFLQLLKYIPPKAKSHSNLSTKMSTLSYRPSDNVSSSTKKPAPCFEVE
In assay [8] the target is Angiotensin II receptor (Rattus norvegicus) (UniProt P29089+P25095+P35351). The assay is described as follows: Ratio of inhibitory concentration against AT2 receptor and AT1 receptor of rat adrenal membrane.
The target in assay [9] is T5, Type-1 angiotensin II receptor (Homo sapiens, UniProt P30556).
T5 sequence (P30556 whole entry): T3 sequence (P34976 whole entry) with M2I, A49V, V254I, V270I, H272R, K311R, S349T, V353A
The assay is described as follows: […] inhibitory concentration against Angiotensin II receptor, type 1 of human adrenal membrane.

Assay [10] relates to Canis familiaris. Kind of assay: In vivo inhibition of angiotensin II induced pressor response in dogs at a dose of 1.0 mg/Kg after 6 hr administered intravenously. Type of assay: functional. To be noted: Canis lupus familiaris, iv.
Assay [11] concerns Rattus norvegicus. The assay is described as follows: In vivo inhibition of angiotensin II induced pressor response in rats at a dose of 1.0 mg/Kg after 6 hr administered intravenously. The format is functional. Conditions: iv.
Assay [12] relates to Rattus norvegicus. The assay is described as follows: In vivo inhibition of angiotensin II induced pressor response in rats at a dose of 1.0 mg/Kg administered intravenously. To be noted: iv. Type of assay: functional.
The subject of assay [13] is Canis familiaris. Kind of assay: In vivo inhibition of angiotensin II induced pressor response in dogs at a dose of 1.0 mg/Kg administered intravenously. Type of assay: functional. Conditions: Canis lupus familiaris, iv.

Substitutions are numbered along the chain they refer to.

In the case of `CCNC(=O)Nc1ccc2nc(CC)n(Cc3ccc(-c4ccccc4S(=O)(=O)NC(=O)c4ccccc4F)cc3F)c(=O)c2c1`, the IC50 in [1] is 65 nM; in assay [2], 4.5 nM; in assay [3] it was 4 nM; in assay [4] it was 1.6 nM; in [5] it was 3.9 nM; in [9] it was 59 nM. In addition, the Ratio in assay [6] was found to be 0.46; in [7], 1.1; in [8] it was 1.4.

As for `CCc1nc2ccc(NC(=O)N(C)C(C)C)cc2c(=O)n1Cc1ccc(-c2ccccc2S(=O)(=O)NC(=O)OCCC2CC2)cc1F`, the IC50 was 6.2 nM in assay [1]; 0.77 nM in [2]; 0.57 nM in assay [3]; 0.39 nM in [4]; 0.5 nM in assay [5]; 8.1 nM in [9]. Besides, the inhibition in vivo at 1 mg/kg in assay [10] was 48%; in assay [11], 62%; in [12], 91%; in assay [13], 89%. Further, the Ratio stood at 1.2 in assay [6], 0.87 in assay [7] and 1.83 in assay [8].

With `CCCCOC(=O)NS(=O)(=O)c1ccccc1-c1ccc(Cn2c(CCCC)nc3ccc(NC(=O)N(C)C(C)C)cc3c2=O)c(F)c1`, the IC50 in assay [1] was determined as 7.7 nM; in assay [2], 0.77 nM; in assay [3] it was 0.19 nM; in assay [4], 0.44 nM; in assay [5], 0.25 nM; in [9], 0.89 nM. Also, the Ratio in [6] turned out to be 2.7; in assay [7], 8.7; in assay [8] it was 3.2.

Consider `CCc1nc2ccc(NC(=O)NC(C)C)cc2c(=O)n1Cc1ccc(-c2ccccc2S(=O)(=O)NC(=O)OCCC2CC2)cc1F`, for which the IC50 in [1] came to 6.5 nM; in [2] it was 0.8 nM; in assay [3], 0.92 nM; in [4], 0.56 nM; in assay [5] it was 0.64 nM; in [9], 7.2 nM. Further, the Ratio in assay [6] was 0.61; in [7], 0.9; in [8] it was 0.92.

As for `CCCCOC(=O)NS(=O)(=O)c1ccccc1-c1ccc(Cn2c(CC)nc3ccc(NC(=O)N4CCOCC4)cc3c2=O)c(F)c1`, the IC50 was determined as 32 nM in [1]; 2.5 nM in assay [2]; 3.8 nM in assay [3]; 1.3 nM in [4]; 1.3 nM in assay [5]; 33 nM in [9]. The Ratio in assay [6] was found to be 0.38; in assay [7], 1; in [8], 2.2.

In the case of `CCc1nc2ccc(NC(=O)c3ccccn3)cc2c(=O)n1Cc1ccc(-c2ccccc2S(=O)(=O)NC(=O)OCCC(C)C)cc1F`, the IC50 worked out at 37 nM in assay [1]; 0.63 nM in assay [2]; 2.3 nM in assay [3]; 1.8 nM in assay [4]; 1.3 nM in assay [5]; 85 nM in assay [9]. The Ratio in assay [6] was 0.79; in [7] it was 0.47; in assay [8] it was 2.5.

With `CCCc1nc2ccc(NC(=O)N3CCOCC3)cc2c(=O)n1Cc1ccc(-c2ccccc2S(=O)(=O)NC(=O)OCCC(C)C)cc1F`, the IC50 in assay [1] was found to be 3.3 nM; in [2], 0.5 nM; in [3], 0.24 nM; in assay [4], 0.48 nM; in [5], 0.13 nM; in [9] it was 0.71 nM. Moreover, the Ratio in assay [6] was found to be 2.3; in assay [7], 4.7; in assay [8], 4.3.

For `CCCCc1nc2ccc(NC(=O)N(C)C(C)C)cc2c(=O)n1Cc1ccc(-c2ccccc2S(=O)(=O)NC(=O)OCCC2CC2)cc1F`, the IC50 came out at 7.8 nM in assay [1]; 0.36 nM in assay [2]; 0.13 nM in assay [3]; 0.29 nM in assay [4]; 0.23 nM in assay [5]; 1.2 nM in [9]. Also, the Ratio was determined as 2.5 in [6], 7.6 in [7] and 1.5 in assay [8].

With `CCCc1nc2ccc(NC(=O)NC(C)C)cc2c(=O)n1Cc1ccc(-c2ccccc2S(=O)(=O)NC(=O)COCC(C)C)cc1F`, the IC50 in assay [1] is 3.5 nM; in assay [2] it was 0.38 nM; in [3], 0.52 nM; in assay [4] it was 1 nM; in [5], 0.17 nM; in assay [9], 1.5 nM. For the same molecule, the values for the Ratio in assay [6], in [7] and in assay [8] were 1.7, 2.3 and 2.1, respectively.
